Source: US20220186186A1, “COMPOSITION FOR INDUCING DIRECT CONVERSION OF SOMATIC CELL INTO COMMON MYELOID PROGENITOR AND USE THEREOF” (KOREA INSTITUTE OF SCIENCE AND TECHNOLOGY, priority 2020, published 2022)

Test system: neonatal fibroblasts (HDF-N)
Assay: Direct conversion of neonatal fibroblasts to CMP cells, marker expression by flow cytometry (FACS)
Type: cell-based, human
Procedure: Human dermal fibroblasts derived from human skin were purchased from ThermoFisher (USA). Human neonatal dermal fibroblasts (HDF-N; neonatal-C0045C) and human adult dermal fibroblasts (HDF-A; adult-C0135C) were purchased, respectively.
To confirm direct conversion potential of fibroblasts to CMP cells, flow cytometry (FACS) analyses were performed. Using the antibodies listed below, expression levels of proteins including the hematopoietic stem cell (HSC) membrane marker CD34, the blood cell membrane marker CD45, and the common myeloid progenitor (CMP) membrane marker CD14, were confirmed. The antibodies used are as follows: • FITC conjugated mouse anti-human CD34 monoclonal antibodies, eBioscience • APC conjugated mouse anti-human CD45 monoclonal antibodies, eBioscience • APC-eFluoro780 conjugated mouse anti-human CD14 monoclonal antibodies, eBioscience
Cells were dissociated into single cells with accutase and then washed with 1% FBS/PBS solution. After treatment with Fc blocker (BD Bioscience) for 10 minutes to prevent non-specific antigen binding, the cells were blocked for 15 minutes using 1% FBS/PBS solution. […] Subsequent to the reaction, the cells were washed twice with cold PBS solution and analyzed by flow cytometry using CytoFLEX by Beckman, and data were analyzed using the CytExpert program. […]

Cc1cccc(-c2n[nH]cc2-c2ccc3ncccc3n2)n1 [Example 3-1, 2-[3-(6-methylpyridin-2-yl)-1H-pyrazol-4-yl]-1,5-naphthyridine]
expression of the blood cell marker CD45 (28 days, inhibitor alone, Table 3 and FIG. 18): increase
CD45-expressing cell (%) compared to negative control group (Cnt) (cultured 28 days in reprogramming media with the chemical composition, Table 3): 6.36%
